# Assay results from US4751302A, “Indazole derivatives” (priority 1982, dated 1988).
# Assays:
# in vivo = conditions: mouse, ip, intraperitoneal, hydrochloride, male ddy mice
# [1] = system: Carrageenin edema in rat's paw; assay: Carrageenin Edema Test in Rat's Paw (anti-inflammatory activity, Table 1); format: in vivo; conditions: 100 mg/kg oral; for inhibition in vivo at 100 mg/kg: hydrochloride, rat; for anti-inflammatory activity in comparison with compounds of the invention: Carrageenin edema
# Description: An anti-inflammatory activity was measured by orally administering 100 mg/kg of a hydrochloride of the indazole derivative of this invention as set forth in Table 1 to an animal in accordance with the standard method of Carrageenin Edema Test in Rat's Paw described in C. A. Winter et al., Proc. Soc. Exp. Biol. Med., 111, 544 (1962).
SMILES,LD50 (in vivo) [mg/kg],inhibition in vivo at 100 mg/kg [1] [%],anti-inflammatory activity in comparison with compounds of the invention [1]
"CCN(CC)CCCn1nc(N)c2c(Cl)cccc21 [(1), 1-(3-Diethylaminopropyl)-3-amino-4-chloroindazole]",171,58,–
"CCN(CC)CCCn1nc(N)c2cc(Cl)ccc21 [(2), 1-(3-Diethylaminopropyl)-3-amino-5-chloroindazole]",192,55,–
"CCN(CC)CCCn1nc(N)c2ccc(Cl)cc21 [(3), 1-(3-Diethylaminopropyl)-3-amino-6-chloroindazole]",241,54,–
"CCN(CC)CCCn1nc(N)c2cccc(Cl)c21 [(4), 1-(3-Diethylaminopropyl)-3-amino-7-chloroindazole]",273,59,–
"CCN(CC)CCCn1nc(N)c2cc(N)ccc21 [(5), 1-(3-Diethylaminopropyl)-3,5-diaminoindazole]",311,59,–
"CCN(CC)CCCn1nc(N)c2cc(OC)ccc21 [(6), 1-(3-Diethylaminopropyl)-3-amino-5-methoxyindazole]",188,56,–
"CCN(CC)CCCn1nc(N)c2cc(C)ccc21 [(7), 1-(3-Diethylaminopropyl)-3-amino-5-methylindazole]",221,58,–
"CCCCN(CCCC)CCCn1nc(N)c2cc(Cl)ccc21 [(8), 1-(3-Di-n-butylaminopropyl)-3-amino-5-chloroindazole]",231,56,–
"CC(CCn1nc(N)c2cc(Cl)ccc21)N(C)C (centres unmarked) [(9), 1-(3-Dimethylaminobutyl)-3-amino-5-chloroindazole]",113,37,–
"CCN(CC)C(CCn1nc(N)c2cc(Cl)ccc21)CC(C)C (centres unmarked) [(10), 1-(3-Diethylamino-5-methylhexyl)-3-amino-5-chloroindazole]",239,49,–
"Nc1nn(CCCN2CCCCC2)c2ccc(Cl)cc12 [(11), 1-(3-Piperidinopropyl)-3-amino-5-chloroindazole]",211,54,–
"Nc1nn(CCCCCCN2CCCCC2)c2ccc(Cl)cc12 [(12), 1-(6-Piperidinohexyl)-3-amino-5-chloroindazole]",337,28,–
"CC(CCn1nc(N)c2cc(Cl)ccc21)N1CCCCC1 (centres unmarked) [(13), 1-(3-Piperidinobutyl)-3-amino-5-chloroindazole]",310,49,–
"CC(C)CC(CCn1nc(N)c2cc(Cl)ccc21)N1CCCCC1 (centres unmarked) [(14), 1-(3-Piperidino-5-methylhexyl)-3-amino-5-chloroindazole]",301,34,–
"CC1CCCCN1CCCn1nc(N)c2cc(Cl)ccc21 (centres unmarked) [(15), 1-[3-(2-Methylpiperidino)propyl]-3-amino-5-chloroindazole]",250,50,–
"CC1CCCC(C)N1CCCn1nc(N)c2cc(Cl)ccc21 (centres unmarked) [(16), 1-[3-(2,6-Dimethylpiperidino)propyl]-3-amino-5-chloroindazole]",214,33,–
"Nc1nn(CCCN2CCC(O)CC2)c2ccc(Cl)cc12 [(17), 1-[3-(4-Hydroxypiperidino)propyl]-3-amino-5-chloroindazole]",251,37,–
"Nc1nn(CCCN2CCC(Cl)CC2)c2ccc(Cl)cc12 [(18), 1-[3-(4-Chloropiperidino)propyl]-3-amino-5-chloroindazole]",278,66,–
"Nc1nn(CCCN2CCCCCC2)c2ccc(Cl)cc12 [(19), 1-(3-Homopiperidinopropyl)-3-amino-5-chloroindazole]",251,38,–
"CN1CCN(CCCn2nc(N)c3cc(Cl)ccc32)CC1 [(20), 1-[3-(4-Methylpiperazino)propyl]-3-amino-5-chloroindazole]",278,26,–
"Nc1nn(CCCN2CCCC2)c2ccc(Cl)cc12 [(21), 1-(3-Pyrrolidinopropyl)-3-amino-5-chloroindazole]",311,39,–
"Nc1nn(CCCN2CCOCC2)c2ccc(Cl)cc12 [(22), 1-(3-Morpholinopropyl)-3-amino-5-chloroindazole]",388,46,–
"CCN(CC)CCCn1nc(N)c2c(O)cccc21 [(23), 1-(3-Diethylaminopropyl)-3-amino-4-hydroxyindazole]",179,56,–
"CCN(CC)CCCn1nc(N)c2cc(O)ccc21 [(24), 1-(3-Diethylaminopropyl)-3-amino-5-hydroxyindazole]",161,53,–
"CCN(CC)CCCn1nc(N)c2ccc(O)cc21 [(25), 1-(3-Diethylaminopropyl)-3-amino-6-hydroxyindazole]",301,52,–

SMILES,LD50 (in vivo) [mg/kg],inhibition in vivo at 100 mg/kg [1] [%],anti-inflammatory activity in comparison with compounds of the invention [1]
"CCN(CC)CCCn1nc(N)c2cccc(O)c21 [(26), 1-(3-Diethylaminopropyl)-3-amino-7-hydroxyindazole]",297,57,–
"CCN(CC)CCCn1nc(N)c2cc(I)ccc21 [(27), 1-(3-Diethylaminopropyl)-3-amino-5-iodoindazole]",281,57,–
"CCN(CC)CCCn1nc(N)c2cccc(I)c21 [(28), 1-(3-Diethylaminopropyl)-3-amino-7-iodoindazole]",103,54,–
"CCN(CC)CCCn1nc(N)c2cc(N)cc(N)c21 [(29), 1-(3-Diethylaminopropyl)-3,5,7-triaminoindazole]",104,56,–
"CCCCN(CCCC)CCCn1nc(N)c2cc(O)ccc21 [(30), 1-(3-Di-n-butylaminopropyl)-3-amino-5-hydroxyindazole]",255,54,–
"CC(CCn1nc(N)c2cc(O)ccc21)N(C)C (centres unmarked) [(31), 1-(3-Dimethylaminobutyl)-3-amino-5-hydroxyindazole]",241,35,–
"CCN(CC)C(CCn1nc(N)c2cc(O)ccc21)CC(C)C (centres unmarked) [(32), 1-(3-Diethylamino-5-methylhexyl)-3-amino-5-hydroxyindazole]",251,47,–
"Nc1nn(CCCN2CCCCC2)c2ccc(O)cc12 [(33), 1-(3-Piperidinopropyl)-3-amino-5-hydroxyindazole]",227,52,–
"Nc1nn(CCCCCCN2CCCCC2)c2ccc(O)cc12 [(34), 1-(6-Piperidinohexyl)-3-amino-5-hydroxyindazole]",231,26,–
"CC(CCn1nc(N)c2cc(O)ccc21)N1CCCCC1 (centres unmarked) [(35), 1-(3-Piperidinobutyl)-3-amino-5-hydroxyindazole]",246,47,–
"CC(C)CC(CCn1nc(N)c2cc(O)ccc21)N1CCCCC1 (centres unmarked) [(36), 1-(3-Piperidino-5-methylhexyl)-3-amino-5-hydroxyindazole]",251,32,–
"CC1CCCCN1CCCn1nc(N)c2cc(O)ccc21 (centres unmarked) [(37), 1-[3-(2-Methylpiperidino)propyl]-3-amino-5-hydroxyindazole]",267,48,–
"CC1CCCC(C)N1CCCn1nc(N)c2cc(O)ccc21 (centres unmarked) [(38), 1-[3-(2,6-Dimethylpiperidino)propyl]-3-amino-5-hydroxyindazole]",278,31,–
"Nc1nn(CCCN2CCC(O)CC2)c2ccc(O)cc12 [(39), 1-[3-(4-Hydroxypiperidino)propyl]-3-amino-5-hydroxyindazole]",311,35,–
"Nc1nn(CCCN2CCC(Cl)CC2)c2ccc(O)cc12 [(40), 1-[3-(4-Chloropiperidino)propyl]-3-amino-5-hydroxyindazole]",335,64,–
"Nc1nn(CCCN2CCCCCC2)c2ccc(O)cc12 [(41), 1-(3-Homopiperidinopropyl)-3-amino-5-hydroxyindazole]",340,36,–
"CN1CCN(CCCn2nc(N)c3cc(O)ccc32)CC1 [(42), 1-[3-(4-Methylpiperazino)propyl]-3-amino-5-hydroxyindazole]",341,24,–
"Nc1nn(CCCN2CCCC2)c2ccc(O)cc12 [(43), 1-(3-Pyrrolidinopropyl)-3-amino-5-hydroxyindazole]",211,36,–
"Nc1nn(CCCN2CCOCC2)c2ccc(O)cc12 [(44), 1-(3-Morpholinopropyl)-3-amino-5-hydroxyindazole]",368,46,–
"CCN(CC)CCCNc1n[nH]c2cccc(Cl)c12 [(45), 3-(3-Diethylaminopropylamino)-4-chloroindazole]",271,61,–
"CCN(CC)CCCNc1n[nH]c2cc(Cl)ccc12 [(47), 3-(3-Diethylaminopropylamino)-6-chloroindazole]",278,58,–
"CCCn1nc(N)c2ccccc21 [Compound C-1, 1-propyl-3-aminoindazole, reference compound]",–,7,little anti-inflammatory activity
"Nc1nn(CCc2ccccc2)c2ccccc12 [Compound C-2, 1-(2-phenylethyl)-3-aminoindazole, reference compound]",–,7,little anti-inflammatory activity
"Nc1n[nH]c2c(N)cccc12 [Compound C-3, 3,7-diaminoindazole, reference compound]",–,6,little anti-inflammatory activity
